These results are taken from paper PMC10958501, “4-Oxypiperidine Ethers as Multiple Targeting Ligands at Histamine H3 Receptors and Cholinesterases” (ACS Chemical Neuroscience, 2024).

For series [1], the system named is AChE. To be noted: cited from earlier work.
Series [2] concerns H3R. The arrangement: method as in PMID 29671795, PMID 23957330. To be noted: cited from earlier work.
The target of series [3] is T1, gpH3R (Cavia porcellus, UniProt Q9JI35).
T1 construct: isolated guinea pig ileum electrically stimulated to contraction; from tissue; host or cells: distal ileum of male guinea pigs
The series can be described thus: Ex vivo gpH3R screening on isolated guinea pig ileum electrically stimulated to contraction. The procedure: All newly synthesized compounds were evaluated ex vivo as H3R antagonists/inverse agonists on guinea pig ileum (gpH3R) stimulated electrically for contraction.[47]
The compounds were tested against H3R by an ex vivo assay using isolated guinea pig ileum electrically stimulated to contraction, according to Vollinga et al.[47] The pA2-values were calculated according to Arunlakshana and Schild.[59] The radioligand-displacement assay was performed in membrane fractions of HEK-293 cells stably expressing hH3R. Cell cultivation and membrane preparation were performed according to Kottke et al.[48] The Ki values were calculated from the IC50 values using the Cheng–Prusoff equation.[60] The statistical calculations were performed on −log(Ki). […] The inhibitory activities toward AChE and BuChE of novel ADS compounds were assessed in a spectrophotometric Ellman’s assay using electric eel AChE (eeAChE) and equine BuChE (eqBuChE).[57] Intracellular cAMP accumulation was measured with a homogeneous TR-FRET immunoassay using the LANCE Ultra cAMP kit (PerkinElmer) and HEK293 cells stably expressing the human histamine H3 receptor.[61] A more detailed description of the biological methods is presented in the Supporting Information.
3. Pharmacological assay results.
3.1. Ex vivo assay for histamine H 3R receptor antagonists on guinea pig ileum.
Male guinea pigs, weighing 300-400 g were euthanized by a blow to the neck. Following this, a 20-30 cm length of the distal ileum, apart from the terminal 5 cm was rapidly removed and […]
USA) (1·10 -6 mol/L). The intraluminal content was rinsed and the isolated intestine was cut into 1.5-2 cm segments. The preparations were mounted between two platinum electrodes […]
and indomethacin (3·10 -7 mol/L).
CO2 mixture and maintained at 37 °C under a constant load of 1.0 g (Hugo Sachs Hebel-Messvorsatz (Tl-2)/HF-modem; Hugo Sachs Elektronik, Hugstetten, Germany) connected to a pen recorder (Kipp & Zonen BD41, Delft, Holland). During an equilibration period of 60 min, the Krebs buffer was changed every 10 min. The preparations were then continuously stimulated at 15-20 V at a frequency of 0.1 Hz for a duration of 0.5 ms, with rectangular-wave electrical pulses (Grass Stimulator S-88; Grass Instruments Co., Quincy, Massachusetts, […]
USA). […] Five minutes before (R)-(−)-α- […]
methylhistamine (RAMH) (Toronto Research Chemicals Inc., North York, Canada), administration, pyrilamine (Sigma-Aldrich, St. Louis, MO, USA) (1·10-5 mol/L concentration in organ bath) was added. The first cumulative concentration-response curve was determined […]
second to fourth curve was measured against increasing antagonist concentration (incubation time 20 min). The pA2-values were calculated according to Arunlakshana and Schild 5.
Statistical analysis was carried out with the Student’s t-test. In all tests, a p<0.05 was […]
considered statistically significant. The pA2 values were compared with the affinity of thioperamide (Sigma-Aldrich, St. Louis, MO, USA). […]

Series [4] has as its target T2, hH3R (Homo sapiens, UniProt Q9Y5N1).
T2 construct: expressed in transfected cells; membrane fractions
The series can be described thus: hH3R radioligand displacement assay in membrane fractions of HEK-293 cells. It counts as binding. To be noted: [3H]Nα-methylhistamine displacement, HEK-293 membranes; 95% CI in brackets. The procedure: The compounds were tested against H3R by an ex vivo assay using isolated guinea pig ileum electrically stimulated to contraction, according to Vollinga et al.[47] The pA2-values were calculated according to Arunlakshana and Schild.[59] The radioligand-displacement assay was performed in membrane fractions of HEK-293 cells stably expressing hH3R. Cell cultivation and membrane preparation were performed according to Kottke et al.[48] The Ki values were calculated from the IC50 values using the Cheng–Prusoff equation.[60] The statistical calculations were performed on −log(Ki). The mean values and 95% confidence intervals were transformed to nanomolar concentrations. The inhibitory activities toward AChE and BuChE of novel ADS compounds were assessed in a spectrophotometric Ellman’s assay using electric eel AChE (eeAChE) and equine BuChE (eqBuChE).[57] Intracellular cAMP accumulation was measured with a homogeneous TR-FRET immunoassay using the LANCE Ultra cAMP kit (PerkinElmer) and HEK293 cells stably expressing the human histamine H3 receptor.[61] A more detailed description of the biological methods is presented in the Supporting Information. […]
considered statistically significant. The pA2 values were compared with the affinity of thioperamide (Sigma-Aldrich, St. Louis, MO, USA).
3.2. hH 3R radioligand displacement binding assay.
The radioligand displacement binding assay was performed in membrane fractions of HEK-293 cells stably expressing hH3R. Cell cultivation and membrane preparation was performed according to Kottke et al 6. For the radioligand displacement assay, radioactively labeled […]
assay volume was set to 200 µL. The compounds were tested in several appropriate concentrations between 100 µM and 0.1 nM. Pipetting was partly done by Freedom Evo® (Tecan). Pitolisant was used to determine non-specific binding at a concentration of 10 µM.
The membrane fraction (20 µg/well), test compounds, and radiolabeled ligand were incubated for 90 minutes at 25 °C while shaking. The bound radioligand was separated from the free radioligand by filtration through GF/B filters pre-treated with 0.3 % (m/v) polyethyleneimine using a cell harvester. Radioactivity was determined by liquid scintillation counting using a MicroBeta® Trilux (Perkin Elmer). The data was obtained in duplicates in at least three independent experiments. Non-specific binding was subtracted from the raw data to calculate specific binding values. The evaluation was performed with GraphPad Prism 6.1 (San Diego, CA, USA) using non-linear regression (one-site competition with a logarithmic scale). The Ki values were calculated from the IC50 values using the Cheng-Prusoff equation 7. The statistical calculations were performed on –log(Ki). […]
For orientation: In a radioligand displacement assay an active substance lowers the binding of a labelled ligand.

Series [5] deals with T3, eeAChE (Electrophorus electricus, UniProt O42275).
T3 construct: purchased Sigma–Aldrich (Steinheim, Germany)
The series can be described thus: biochemical. To be noted: for inhibition at 10 µM: read-out: eeAChE % inh. (10μM) ± SD; for IC50: read-out: eeAChE IC50 (μM) ± sem.

Series [6] deals with eqBuChE (Equus caballus, UniProt P81908). The series can be described thus: biochemical. To be noted: for inhibition at 10 µM: read-out: eqBuChE % inh. (10 μM) ± SD; for IC50: read-out: eqBuChE IC50 [μM] ± sem.
The target of series [7] is T2, hH3R. The following applies: cited from earlier work.
Series [8] deals with BuChE. The arrangement: method as in PMID 16599255. The following applies: cited from earlier work.
Details of series [9]: method as in PMID 29671795. The following applies: in vivo; cited from earlier work.
The mark [10] stands for this setting: isolated guinea pig ileum, against (R)-(−)-α-methylhistamine, mean of at least three experiments, read-out: gpH3R pA2 ± sem (converted).

Where two headings read alike, the source gives them in different places.

T2 sequence (Q9Y5N1 whole entry): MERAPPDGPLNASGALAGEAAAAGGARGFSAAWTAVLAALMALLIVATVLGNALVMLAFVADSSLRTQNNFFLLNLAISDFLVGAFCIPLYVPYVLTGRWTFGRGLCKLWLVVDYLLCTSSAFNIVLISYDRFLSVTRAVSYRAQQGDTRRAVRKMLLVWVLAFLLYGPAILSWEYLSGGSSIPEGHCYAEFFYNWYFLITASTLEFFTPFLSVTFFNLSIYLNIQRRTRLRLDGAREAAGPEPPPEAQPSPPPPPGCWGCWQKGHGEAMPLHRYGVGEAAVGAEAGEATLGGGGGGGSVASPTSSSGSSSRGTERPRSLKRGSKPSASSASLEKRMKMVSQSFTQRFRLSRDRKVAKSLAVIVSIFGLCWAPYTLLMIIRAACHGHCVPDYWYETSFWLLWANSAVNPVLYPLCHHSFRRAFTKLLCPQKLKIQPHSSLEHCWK
T3 sequence (O42275 24-633): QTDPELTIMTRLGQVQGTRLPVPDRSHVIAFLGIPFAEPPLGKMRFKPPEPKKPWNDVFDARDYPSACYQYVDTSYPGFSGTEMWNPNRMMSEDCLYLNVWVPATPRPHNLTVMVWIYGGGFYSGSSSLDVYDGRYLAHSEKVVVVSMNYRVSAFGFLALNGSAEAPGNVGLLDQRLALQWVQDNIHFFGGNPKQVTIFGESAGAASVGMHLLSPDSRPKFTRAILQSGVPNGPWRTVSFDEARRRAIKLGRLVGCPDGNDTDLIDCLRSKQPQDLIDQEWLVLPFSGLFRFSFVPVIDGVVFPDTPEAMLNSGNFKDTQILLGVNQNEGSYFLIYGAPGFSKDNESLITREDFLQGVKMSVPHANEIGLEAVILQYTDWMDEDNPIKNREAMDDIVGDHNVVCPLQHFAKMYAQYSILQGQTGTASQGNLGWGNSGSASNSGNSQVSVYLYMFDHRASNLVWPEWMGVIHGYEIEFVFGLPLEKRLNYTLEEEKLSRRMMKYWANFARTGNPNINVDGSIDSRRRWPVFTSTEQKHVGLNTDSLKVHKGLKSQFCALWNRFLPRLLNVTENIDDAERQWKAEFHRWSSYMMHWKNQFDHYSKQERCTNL
eqBuChE, sequence (P81908 whole entry): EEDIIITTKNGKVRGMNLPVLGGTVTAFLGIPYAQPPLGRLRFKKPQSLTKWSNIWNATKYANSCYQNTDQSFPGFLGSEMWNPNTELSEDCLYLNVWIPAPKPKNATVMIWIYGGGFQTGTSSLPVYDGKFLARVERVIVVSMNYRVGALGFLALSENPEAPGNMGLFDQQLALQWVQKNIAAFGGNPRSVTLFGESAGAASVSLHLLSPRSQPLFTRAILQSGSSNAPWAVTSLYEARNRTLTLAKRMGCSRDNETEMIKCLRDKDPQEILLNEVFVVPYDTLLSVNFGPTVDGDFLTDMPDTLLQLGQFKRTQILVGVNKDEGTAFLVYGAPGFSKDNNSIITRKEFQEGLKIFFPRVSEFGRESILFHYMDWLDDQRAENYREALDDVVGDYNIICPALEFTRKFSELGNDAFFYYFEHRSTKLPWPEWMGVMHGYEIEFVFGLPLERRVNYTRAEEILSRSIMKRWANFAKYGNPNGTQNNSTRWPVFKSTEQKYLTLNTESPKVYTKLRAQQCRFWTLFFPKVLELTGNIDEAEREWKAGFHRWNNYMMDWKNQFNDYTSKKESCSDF
T1 sequence (Q9JI35 whole entry): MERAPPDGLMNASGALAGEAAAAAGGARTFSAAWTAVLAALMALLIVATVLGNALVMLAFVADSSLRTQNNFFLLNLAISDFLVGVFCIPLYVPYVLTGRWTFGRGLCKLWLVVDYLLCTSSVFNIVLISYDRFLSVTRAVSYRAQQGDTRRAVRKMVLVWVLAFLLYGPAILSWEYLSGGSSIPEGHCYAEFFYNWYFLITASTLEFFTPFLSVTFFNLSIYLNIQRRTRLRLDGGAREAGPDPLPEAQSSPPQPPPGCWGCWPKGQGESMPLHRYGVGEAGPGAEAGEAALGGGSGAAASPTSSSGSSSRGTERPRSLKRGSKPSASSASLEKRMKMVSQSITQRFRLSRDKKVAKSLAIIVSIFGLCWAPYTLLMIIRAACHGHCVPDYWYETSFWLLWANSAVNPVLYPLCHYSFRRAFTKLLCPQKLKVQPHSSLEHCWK

As to `c1cc(-c2ccc(CN3CCCCC3)cc2)ccc1CCN1CCCCC1` [I], the IC50 in series [1] was 1100 nM.
Regarding `CCCN(C)CCCCCOC1CCN(Cc2ccccc2)CC1` [ADS009, 5-((1-benzylpiperidin-4-yl)oxy)-N-methyl-N-propylpentan-1-amine], the pA2 in series [2] was 7.79.
In turn, `CCCN(C)Cc1ccc(COC2CCN(Cc3ccccc3)CC2)cc1` [ADS022, N-(4-(((1-Benzylpiperidin-4-yl)oxy)methyl)benzyl)-N-methylpropan-1-amine] gave a Kb in series [3] of 38 nM. Also, in series [4], the Ki came out at 77.1 nM. For the same compound, in series [5], the inhibition at 10 µM is 61.6 ± 2.8% and the concentration for half-maximal inhibition (IC50) amounted to 6.89 ± 0.271 µM. In addition, the inhibition at 10 µM in [6] was found to be 49.4 ± 1.9%.
In the case of `c1ccc2c(NCc3ccc(CCCN4CCCCC4)cc3)c3c(nc2c1)CCCC3` [III], the Ki in series [7] is 0.3 nM. In addition, the half-inhibitory concentration (IC50) is 2.6 nM in series [1] and 8.8 nM in series [8].
As for `CCCN(C)Cc1cccc(COC2CCN(Cc3cc4ccccc4o3)CC2)c1` [ADS026, N-(3-(((1-(Benzofuran-2-ylmethyl)piperidin-4-yl)oxy)methyl)benzyl)-N-methylpropan-1-amine], in series [3] (setting [10]), the Kb is 93.3 nM. Moreover, the inhibition at 10 µM in series [5] came to 5.5 ± 0.6%; in series [6], 55.9 ± 2%.
Compound `CCCN(C)Cc1cccc(COC2CCN(Cc3ccccc3)CC2)c1` [ADS025, N-(3-(((1-Benzylpiperidin-4-yl)oxy)methyl)benzyl)-N-methylpropan-1-amine] had a Kb in [3] of 129 nM. In series [5], the inhibition at 10 µM is 53.7 ± 1.9% and the IC50 came to 9.94 ± 0.64 µM. Further, in series [6], the inhibition at 10 µM was 63.9 ± 1.7% and the half-inhibitory concentration (IC50) came out at 6.05 ± 0.16 µM.
Regarding `S=C(NC1CCCCC1)N1CCC(c2cnc[nH]2)CC1` [Thioperamide], the pA2 in series [2] is reported as 8.67.
Consider `CCCN(C)Cc1ccc2cc(COC3CCN(Cc4cc5ccccc5o4)CC3)ccc2c1` [ADS032, N-((6-(((1-(Benzofuran-2-ylmethyl)piperidin-4-yl)oxy)methyl)naphthalen-2-yl)methyl)-N-methylpropan-1-amine], for which, in series [3], the Kb was 87.1 nM. Besides, the affinity in [4] corresponds to a Ki of 44.1 nM. Besides, the inhibition at 10 µM is 28.1 ± 3.9% in series [5] and 90.3 ± 0.1% in [6]. The IC50 in [6] is 1.64 ± 0.074 µM.
Turning to `CCCN(C)Cc1ccccc1COC1CCN(Cc2ccccc2)CC1` [ADS027, N-(2-(((1-Benzylpiperidin-4-yl)oxy)methyl)benzyl)-N-methylpropan-1-amine], the Kb in series [3] was 151 nM. Besides, in [5], the inhibition at 10 µM came to 4.8 ± 0.3%. In series [6], the inhibition at 10 µM amounted to 64.6 ± 0.9% and the half-maximal inhibitory concentration (IC50) came to 4.31 ± 0.202 µM.
The compound `CCCN(C)c1ccc(OC2CCN(Cc3ccccc3)CC2)cc1` [ADS021, 4-((1-Benzylpiperidin-4-yl)oxy)-N-methyl-N-propylaniline] yielded a Kb in [3] above 100000 nM. In series [5], the inhibition at 10 µM was 33.4 ± 1.1%. In series [6], the inhibition at 10 µM stood at 95.88 ± 0.2% and the IC50 amounted to 0.559 ± 0.125 µM.
`CCCN(C)Cc1ccc(-c2ccc(COC3CCN(Cc4ccccc4)CC3)cc2)cc1` [ADS029, N-((4′-(((1-Benzylpiperidin-4-yl)oxy)methyl)-[1,1′-biphenyl]-4-yl)methyl)-N-methylpropan-1-amine] showed a Kb in series [3] of 61.7 nM. Moreover, in series [5], the inhibition at 10 µM amounted to 69 ± 0.5% and the half-inhibitory concentration (IC50) amounted to 3.71 ± 0.134 µM. In series [6], the inhibition at 10 µM turned out to be 90.8 ± 0.3% and the IC50 is 1.4 ± 0.055 µM.
For `CCCN(C)CCCCCOC1CCN(Cc2cc3ccccc3o2)CC1` [ADS003, 5-((1-(benzofuran-2-ylmethyl)piperidin-4-yl)oxy)-N-methyl-N-propylpentan-1-amine], the pA2 in [2] is recorded as 8.47. In addition, the “blood–brain barrier crossing” value in series [9] is recorded as “ability to cross the blood–brain barrier”.
In turn, `CCCN(C)Cc1ccccc1COC1CCN(Cc2cc3ccccc3o2)CC1` [ADS028, N-(2-(((1-(Benzofuran-2-ylmethyl)piperidin-4-yl)oxy)methyl)benzyl)-N-methylpropan-1-amine] showed a Kb in series [3] of 126 nM. Moreover, in series [5], the inhibition at 10 µM was determined as 2.3 ± 0.3%. For the same compound, in [6], the inhibition at 10 µM amounted to 79.6 ± 0.4% and the 50% inhibitory concentration (IC50) amounted to 2.65 ± 0.055 µM.
`CCCN(C)Cc1ccc(-c2ccc(COC3CCN(Cc4cc5ccccc5o4)CC3)cc2)cc1` [ADS030, N-((4′-(((1-(Benzofuran-2-ylmethyl)piperidin-4-yl)oxy)methyl)-[1,1′-biphenyl]-4-yl)methyl)-N-methylpropan-1-amine]: the Kb in series [3] was 257 nM. The inhibition at 10 µM in series [5] worked out at 31.2 ± 0.5%. In addition, in series [6], the inhibition at 10 µM was 83.1 ± 0.4% and the IC50 was determined as 1.75 ± 0.077 µM.
As to `CCCN(C)c1ccc(OC2CCN(Cc3cc4ccccc4o3)CC2)cc1` [ADS023, 4-((1-(Benzofuran-2-ylmethyl)piperidin-4-yl)oxy)-N-methyl-N-propylaniline], the Kb in [3] (setting [10]) is above 100000 nM. The results for the inhibition at 10 µM in [5] and in series [6] were 40.3 ± 2.8% and 43.2 ± 2.1%, respectively.
On to `CCCN(C)Cc1ccc(COC2CCN(Cc3cc4ccccc4o3)CC2)cc1` [ADS024, N-(4-(((1-(Benzofuran-2-ylmethyl)piperidin-4-yl)oxy)methyl)benzyl)-N-methylpropan-1-amine], for which the Kb in [3] was 26.9 nM. In series [4], this compound showed an inhibitory constant (Ki) of 144 nM. The inhibition at 10 µM turned out to be 36.2 ± 3.6% in series [5] and 32.2 ± 2.6% in series [6].

For orientation: IC50 means the concentration at which inhibition is half-maximal. Broadly, the pA2 is the negative logarithm of the molar antagonist concentration that doubles the agonist concentration needed for the same response. Usually Ki stands for a measure of affinity in units of concentration, obtained from inhibition or displacement.
